In US8889874B2, “Imidazolone-chalcone derivatives as potential anticancer agent and process for the preparation thereof” (Council of Scientific and Industrial Research, priority 2010, dated 2014):
Like-named read-outs stand apart in the source and are kept apart here.

Experiments:
Type in all cases: cell-based, human
[1] = tested on: Leukemia cancer cell lines; assay: NCI anticancer screen, SRB assay, panel summary; conditions: Homo sapiens
Procedure: (§1) Some of biological activity studies were carried out at the National Cancer Institute (NCI), Maryland, USA.
(§2) The compounds were evaluated for anticancer activity against fifty three human cancer cells derived from nine cancer types (leukemia cell line, non-small-cell lung cell line, colon cell line, CNS cell line, melanoma cell line, ovarian cell line, prostate cell line, and breast cancer cell line) as shown in Table 1. For each compound, dose response curves for each cell line were measured at a minimum of five concentrations at 10 fold dilutions. A protocol of 48 h continuous drug exposure was used and a sulforhodamine B (SRB) protein assay was used to estimate cell viability or growth.

[2] = tested on: CNS cancer cell lines; assay: NCI anticancer screen, SRB assay, panel summary; conditions: for GI50: Homo sapiens
Procedure: as §1, §2

[3] = tested on: Breast cancer cell lines; assay: NCI anticancer screen, SRB assay, panel summary; conditions: Homo sapiens
Procedure: as §1, §2

[4] = tested on: Ovarian cancer cell lines; assay: NCI anticancer screen, SRB assay, panel summary; conditions: Homo sapiens
Procedure: as §1, §2

[5] = tested on: Non-small cell lung cancer cell lines; assay: NCI anticancer screen, SRB assay, panel summary; conditions: Homo sapiens
Procedure: as §1, §2

[6] = tested on: Prostate cancer cell lines; assay: NCI anticancer screen, SRB assay, panel summary
Procedure: as §1, §2

[7] = tested on: Renal cancer cell lines; assay: NCI anticancer screen, SRB assay, panel summary; conditions: Homo sapiens
Procedure: as §1, §2

[8] = tested on: Colon cancer cell lines; assay: NCI anticancer screen, SRB assay, panel summary; conditions: for GI50: Homo sapiens
Procedure: as §1, §2

[9] = tested on: Melanoma cancer cell lines; assay: NCI anticancer screen, SRB assay, panel summary; conditions: for GI50: Homo sapiens
Procedure: as §1, §2

[10] = tested on: SK-MEL-28 (melanoma); assay: NCI anticancer screen, SRB assay, 48 h; conditions: Homo sapiens
Summary of the method: (§3)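 Compounds were tested across fifty three human cancer cell lines from nine tumour types. Each line got a dose-response curve of at least five concentrations at 10-fold dilutions, with continuous drug exposure and sulforhodamine B protein staining to estimate viability or growth.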

[11] = tested on: NCI-H460 (non-small cell lung); assay: NCI anticancer screen, SRB assay, 48 h; conditions: Homo sapiens
Summary of the method: as §3

[12] = tested on: UACC-62 (melanoma); assay: NCI anticancer screen, SRB assay, 48 h; conditions: Homo sapiens
Summary of the method: as §3

[13] = tested on: SF-268 (CNS); assay: NCI anticancer screen, SRB assay, 48 h; conditions: Homo sapiens
Summary of the method: as §3

[14] = tested on: SW-620 (colon); assay: NCI anticancer screen, SRB assay, 48 h; conditions: Homo sapiens
Summary of the method: as §3

[15] = tested on: RXF 393 (renal); assay: NCI anticancer screen, SRB assay, 48 h; conditions: Homo sapiens
Summary of the method: as §3

[16] = tested on: BT-549 (breast); assay: NCI anticancer screen, SRB assay, 48 h; conditions: Homo sapiens
Summary of the method: as §3

[17] = tested on: TD-47D (breast); assay: NCI anticancer screen, SRB assay, 48 h; conditions: Homo sapiens
Summary of the method: as §3

[18] = tested on: HCT-116 (colon); assay: NCI anticancer screen, SRB assay, 48 h; conditions: Homo sapiens
Summary of the method: as §3

[19] = tested on: OVCAR-3 (ovarian); assay: NCI anticancer screen, SRB assay, 48 h; conditions: Homo sapiens
Summary of the method: as §3

[20] = tested on: M14 (melanoma); assay: NCI anticancer screen, SRB assay, 48 h; conditions: Homo sapiens
Summary of the method: as §3

[21] = tested on: SK-OV-3 (ovarian); assay: NCI anticancer screen, SRB assay, 48 h; conditions: Homo sapiens
Summary of the method: as §3

[22] = tested on: NCI-H522 (non-small cell lung); assay: NCI anticancer screen, SRB assay, 48 h; conditions: Homo sapiens
Summary of the method: as §3

[23] = tested on: SK-MEL-2 (melanoma); assay: NCI anticancer screen, SRB assay, 48 h; conditions: Homo sapiens
Summary of the method: as §3

[24] = tested on: UO-31 (renal); assay: NCI anticancer screen, SRB assay, 48 h; conditions: Homo sapiens
Summary of the method: as §3

[25] = tested on: SF-539 (CNS); assay: NCI anticancer screen, SRB assay, 48 h; conditions: Homo sapiens
Summary of the method: as §3

[26] = tested on: SF-295 (CNS); assay: NCI anticancer screen, SRB assay, 48 h; conditions: Homo sapiens
Summary of the method: as §3

[27] = 48 h exposure, SRB, read-out: GI50
[28] = read-out: pGI50 (-log of molar concentration causing 50% inhibition of net cell growth) (converted)

Compound COc1ccc(-c2cn(-c3cccc(C(=O)/C=C/c4ccc(O)c(OC)c4)c3)c(=O)[nH]2)cc1 [3b, 1-3-[(E)-3-(4-hydroxy-3-methoxyphenyl)-2-propenoyl]phenyl-4-(4-methoxyphenyl)-2,3-dihydro-1H-2-imidazolone] has a GI50 ([1]; Leukemia panel, log of concentration in mol/L causing 50% inhibition of net cell growth, read-out: mean graph midpoint (MG_MID) of Log10 GI50 (converted)) of 1.78 µM, an LC50 ([1]; Leukemia panel, log of concentration leading to 50% net cell death, read-out: mean graph midpoint (MG_MID) of Log10 LC50 (converted)) of 38 µM and a GI50 ([1]; two leukemia cancer cell lines (RPMI-8226 and K-562), exposure at least 48 hrs, read-out: GI50, range over the panel) of 1.35 to 2.35 µM. The “mean graph midpoint (MG_MID) of Log10 LC50” value ([2]; CNS panel, log of concentration leading to 50% net cell death) was 4.06, the GI50 ([2]; CNS panel, log of concentration in mol/L causing 50% inhibition of net cell growth, read-out: mean graph midpoint (MG_MID) of Log10 GI50 (converted)) was 4.68 µM and the GI50 ([2]; six CNS cancer cell lines, exposure at least 48 hrs, read-out: GI50, range over the panel) was 2.25 to 13.9 µM. The GI50 ([3]; Breast panel, log of concentration in mol/L causing 50% inhibition of net cell growth, read-out: mean graph midpoint (MG_MID) of Log10 GI50 (converted)) was 4.17 µM, the LC50 ([3]; Breast panel, log of concentration leading to 50% net cell death, read-out: mean graph midpoint (MG_MID) of Log10 LC50 (converted)) was 100 µM and the GI50 ([3]; five breast cancer cell lines, exposure at least 48 hrs, read-out: GI50, range over the panel) was 3.18 to 5.25 µM. The GI50 ([4]; Ovarian panel, log of concentration in mol/L causing 50% inhibition of net cell growth, read-out: mean graph midpoint (MG_MID) of Log10 GI50 (converted)) was 3.89 µM, the LC50 ([4]; Ovarian panel, log of concentration leading to 50% net cell death, read-out: mean graph midpoint (MG_MID) of Log10 LC50 (converted)) was 100 µM and the GI50 ([4]; six ovarian cancer cell lines, exposure at least 48 hrs, read-out: GI50, range over the panel) was 2.56 to 6.08 µM. For the same compound, the GI50 ([5]; Non-small cell lung panel, log of concentration in mol/L causing 50% inhibition of net cell growth, read-out: mean graph midpoint (MG_MID) of Log10 GI50 (converted)) was 4.68 µM, the LC50 ([5]; Non-small cell lung panel, log of concentration leading to 50% net cell death, read-out: mean graph midpoint (MG_MID) of Log10 LC50 (converted)) was ≥ 100 µM and the GI50 ([5]; nine non-small cell lung cancer cell lines, exposure at least 48 hrs, read-out: GI50, range over the panel) was 2.85 to 13.4 µM. For the same compound, the GI50 ([6]; Homo sapiens, log of concentration in mol/L causing 50% inhibition of net cell growth, read-out: mean graph midpoint (MG_MID) of Log10 GI50 (converted)) was 3.02 µM, the LC50 ([6]; Homo sapiens, log of concentration leading to 50% net cell death, read-out: mean graph midpoint (MG_MID) of Log10 LC50 (converted)) was ≥ 100 µM and the “mean graph midpoint (MG_MID) of Log10 TGI” value ([6]; log of concentration resulting in total inhibition of net cell growth) was 4.80. For the same compound, the GI50 ([7]; Renal panel, log of concentration in mol/L causing 50% inhibition of net cell growth, read-out: mean graph midpoint (MG_MID) of Log10 GI50 (converted)) was 4.68 µM, the LC50 ([7]; Renal panel, log of concentration leading to 50% net cell death, read-out: mean graph midpoint (MG_MID) of Log10 LC50 (converted)) was 95.5 µM and the GI50 ([7]; eight renal cancer cell lines, exposure at least 48 hrs, read-out: GI50, range over the panel) was 3.4 to 6.08 µM. The “mean graph midpoint (MG_MID) of Log10 LC50” value ([8]; Colon panel, log of concentration leading to 50% net cell death) was 4.33, the GI50 ([8]; Colon panel, log of concentration in mol/L causing 50% inhibition of net cell growth, read-out: mean graph midpoint (MG_MID) of Log10 GI50 (converted)) was 2.88 µM and the GI50 ([8]; seven colon cancer cell lines, exposure at least 48 hrs, read-out: GI50, range over the panel) was 1.77 to 6.61 µM. The GI50 ([9]; Melanoma panel, log of concentration in mol/L causing 50% inhibition of net cell growth, read-out: mean graph midpoint (MG_MID) of Log10 GI50 (converted)) was 4.07 µM, the GI50 ([9]; nine melanoma cancer cell lines, exposure at least 48 hrs, read-out: GI50, range over the panel) was 2.03 to 13.3 µM and the “mean graph midpoint (MG_MID) of Log10 LC50” value ([9]; Melanoma panel, log of concentration leading to 50% net cell death) was 4.13. The GI50 [10, 27] was 2.03 µM, the GI50 [10, 28] was 2.04 µM and the GI50 [11, 27] was 3.23 µM. For the same compound, the GI50 [11, 28] was 3.24 µM, the GI50 [12, 27] was 3.96 µM and the GI50 [12, 28] was 3.98 µM. The GI50 [13, 27] was 3.4 µM, the GI50 [13, 28] was 3.39 µM and the GI50 [14, 27] was 2.5 µM. It also gave a GI50 [14, 28] of 2.51 µM, a GI50 ([15]; RXF 393, 48 h exposure, SRB, read-out: GI50) of 5.85 µM and a GI50 ([15]; RXF-393, read-out: pGI50 (-log of molar concentration causing 50% inhibition of net cell growth) (converted)) of 5.89 µM. It also gave a GI50 [16, 27] of 4.57 µM, a GI50 [16, 28] of 4.57 µM and a GI50 [17, 27] of 3.6 µM. The GI50 [17, 28] was 3.63 µM, the GI50 [18, 27] was 1.93 µM and the GI50 [18, 28] was 1.95 µM. The GI50 [19, 27] was 2.7 µM, the GI50 [19, 28] was 2.69 µM and the GI50 [20, 27] was 5.14 µM. For the same compound, the GI50 [20, 28] was 5.13 µM, the GI50 [21, 27] was 4.77 µM and the GI50 [21, 28] was 4.79 µM. It also gave a GI50 [22, 27] of 3.48 µM, a GI50 [22, 28] of 3.47 µM and a GI50 [23, 27] of 5.54 µM. For the same compound, the GI50 [23, 28] was 5.5 µM, the GI50 [24, 27] was 5.19 µM and the GI50 [24, 28] was 5.25 µM. The GI50 [25, 27] was 2.25 µM, the GI50 [25, 28] was 2.24 µM and the GI50 [26, 27] was 13.9 µM. For the same compound, the GI50 [26, 28] was 13.8 µM.
